Source: patent US7718641B2, “Pyrrolo [3,4-H] isoquinoline compounds and methods for modulating gated ion channels” (Aros Pharma ApS, priority 2005, dated 2010)

How the values were obtained:
Assay type in all cases: cell-based
[1] = tested on: rat dorsal root ganglion neurons; assay: Patch clamp (current clamp) of acid-induced action potential generation in rat dorsal root ganglion neurons in primary culture; conditions: 1 μM, current-clamp mode, n=3
Description: The acid-evoked action potentials were recorded in the presence and absence of Compound A (1 μM) or Compound H (1 μM) using the whole cell configuration of the patch clamp method (current clamp mode).
(§1) Sensory neurons can be isolated and cultured in vitro from different animal species. The most widely used protocols use sensory neurons isolated from neonatal (Eckert, et al. (1997) J Neurosci Methods 77:183-190) and embryonic (Vasko, et al. (1994) J Neurosci 14:4987-4997) rat. […] Electrophysiology is performed similarly as described above in Example 2. […] In the current-clamp mode, change in the trans-membrane potential are recorded. Under acidic conditions (e.g., pH 6.5) the membrane depolarizes, leading to the firing of action potentials, as shown in FIGS. 7A and 7B.

[2] = tested on: rat dorsal root ganglion neurons; assay: Patch clamp (voltage clamp) of native proton-gated currents in rat dorsal root ganglion neurons in primary culture; conditions: 1 μM, voltage-clamp mode, n=3
Description: These endogenous proton-activated inward currents were recorded in the presence and absence of Compound A (1 μM) or Compound H (1 μM) using the whole cell configuration of the patch clamp method (voltage clamp mode).
as §1

hASIC1a = biological target: T1, hASIC1a (Homo sapiens, UniProt P78348); assay: Calcium-imaging (FLIPR, Fluo-4) of acid (MES)-induced calcium response in ASIC1a expressing HEK293 cells; parameters: expressed in transfected cells; host or cells: HEK293; conditions: calcium mobilization assay, MES-induced calcium response, HEK293, n=3-7
T1 sequence (P78348 1-528): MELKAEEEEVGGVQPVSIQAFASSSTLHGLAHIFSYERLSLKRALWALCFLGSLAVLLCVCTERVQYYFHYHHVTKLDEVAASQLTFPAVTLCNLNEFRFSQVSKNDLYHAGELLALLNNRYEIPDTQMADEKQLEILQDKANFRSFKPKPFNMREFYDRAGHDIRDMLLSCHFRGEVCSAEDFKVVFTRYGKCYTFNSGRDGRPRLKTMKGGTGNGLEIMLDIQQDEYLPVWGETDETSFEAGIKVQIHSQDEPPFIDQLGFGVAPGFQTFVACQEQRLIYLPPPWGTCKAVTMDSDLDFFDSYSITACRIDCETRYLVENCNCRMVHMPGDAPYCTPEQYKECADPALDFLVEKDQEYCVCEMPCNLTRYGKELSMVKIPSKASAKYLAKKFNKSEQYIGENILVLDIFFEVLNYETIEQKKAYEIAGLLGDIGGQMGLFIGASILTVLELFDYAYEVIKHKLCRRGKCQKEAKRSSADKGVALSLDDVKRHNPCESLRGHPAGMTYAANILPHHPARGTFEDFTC
Description: ASIC1a expressing HEK293 cells are grown in culture medium (DMEM with 10% FBS), in polystyrene culture flasks ([…]) at 37° C. in a humidified atmosphere of 5% CO2. Confluency of cells should be 80-90% on day of plating. Cells are rinsed with 10 ml of PBS and re-suspended by addition of culture medium and trituration with a 25 ml pipette.
The cells are seeded at a density of approximately 1×10^6 cells/ml (100 μl/well) in black-walled, clear bottom, 96-well plates pre-treated with 10 mg/l poly-D-lysin (75 μl/well for ≧30 min). Plated cells were allowed to proliferate for 24 h before loading with dye.
Fluo-4/AM (1 mg, Molecular Probes) is dissolved in 912 μl DMSO. The Fluo-4/AM stock solution (1 mM) is diluted with culture medium to a final concentration of 2 μM (loading solution).
The culture medium is aspirated from the wells, and 50 μl of the Fluo-4/AM loading solution is added to each well. The cells are incubated at 37° C. for 30 min.
After the loading period, the loading solution is aspirated and the cells are washed twice with 100 μl modified Assay Buffer (145 mM NaCl, 5 mM KCl, 5 mM CaCl2, 1 mM MgCl2, 10 mM HEPES, pH 7.4) to remove extracellular dye. Following the second wash, 100 μl modified Assay Buffer is added to each well and the fluorescence is measured in FLIPR™ or FlexStation™ (Molecular Devices, USA), or any other suitable equipment known to the skilled in the art.
Temperature: Room temperature (20-22° C.)
First addition: 50 μl test solution at a rate of 30 μl/sec and a starting height of 100 μl.
Second addition: 50 μl MES solution (20 mM, 5 mM final concentration) at a rate of 35 μl/sec and a starting height of 150 μl.
Reading intervals: pre-incubation—10 sec×7 and 3 sec×3 antagonist phase—3 sec×17 and 10 sec×12
Addition plates (compound test plate and MES plate) are placed on the right and left positions in the FLIPR tray, respectively. Cell plates are placed in the middle position and the ASIC1a program is effectuated. FLIPR will then take the appropriate measurements in accordance with the interval settings above. Fluorescence obtained after stimulation is corrected for the mean basal fluorescence (in modified Assay Buffer).
The MES-induced peak calcium response, in the presence of test substance, is expressed relatively to the MES response alone. Test substances that block the MES-induced calcium response are re-tested in triplicates. Confirmed hits are picked for further characterization by performing full dose-response curves to determine potency of each hit compound as represented by the IC50 values (i.e., the concentration of the test substance which inhibits 50% of the MES-induced calcium response; see, for example, FIGS. 1A, 1B and 1C, and FIGS. 13A and 13B).

## COc1ccc(F)cc1-c1cc2c(c3c1CCN(C)C3)NC(=O)/C2=N/O [Compound A, 5-(5-fluoro-2-methoxyphenyl)-6,7,8,9-tetrahydro-3-(hydroxyimino)-8-methyl-1H-pyrrolo[3,2-h]isoquinoline-2(3H)-one]
[1]
  effect on acid-induced membrane depolarization and action potential firing: inhibit the acid-induced membrane depolarization and reduces the ensuing rate of action potential firing
[2]
  effect on pH 6.5-induced inward current in sensory neurons: inhibit the pH 6.5-induced inward current
hASIC1a
  IC50: 100 to 200 nM

## CCN1CCc2c(-c3ccccc3)cc3c(c2C1)NC(=O)/C3=N/O [Compound H, 5-phenyl-6,7,8,9-tetrahydro-3-(hydroxyimino)-8-ethyl-1H-pyrrolo[3,2-h]isoquinoline-2(3H)-one]
[1]
  effect on acid-induced membrane depolarization and action potential firing: inhibit the acid-induced membrane depolarization and reduces the ensuing rate of action potential firing
[2]
  effect on pH 6.5-induced inward current in sensory neurons: inhibit the pH 6.5-induced inward current
hASIC1a
  IC50: 15 to 250 nM
